Results from US6521600B1, “Compound, WF002, production thereof and use thereof” (Fujisawa Pharmaceutical Co., Ltd., priority 1998, dated 2003).

Key:
[1] = test system: Aspergillus fumigatus FP1305; assay: Antimicrobial activity, serial broth dilution method (MEC); format: cell-based; conditions: yeast nitrogen base dextrose medium, 37° C., 24 hours, microscopic observation
Experimental: (§1) Test 1 (Antimicrobial Activity) Antimicrobial activity of WF002 was determined by a serial broth dilution method using 96-well microtiter plate in 100 μl of yeast nitrogen base dextrose medium. The inoculum was adjusted to 1×10^5 colony forming units/ml. Candida albicans and Aspergillus fumigatus were cultured at 37° C. for 24 hours and Cryptococcus neoformans was cultured at 37° C. for 48 hours in 5% CO2 incubator. After incubation, the growth inhibition of microorganism in each well was determined by microscopic observation. The results were shown as MEC (minimum effective concentration: μg/ml) value (Table 2).

[2] = test system: Candida albicans FP633; assay: as above; format: cell-based; conditions: yeast nitrogen base dextrose medium, 37° C., 24 hours, microscopic observation
Experimental: as §1

[3] = test system: Cryptococcus neoformans YC203; assay: as above; format: cell-based; conditions: yeast nitrogen base dextrose medium, 37° C., 48 hours, 5% CO2, microscopic observation
Experimental: as §1

[4] = Solubility in solvents; format: physicochemical

For `CC(=O)OC1CC2(C)C(CCC3(C)C2CCC2=C4C(=O)CC5C(C)COC(O)C45CCC23C)C(C)(C)C1OC1OC(CO)C(O)C(O)C1O` (centres unmarked) [WF002], the “MEC (minimum effective concentration)” value [1] was 0.04 µg/mL, the “MEC (minimum effective concentration)” value [2] was 6.25 µg/mL and the “MEC (minimum effective concentration)” value [3] was 50 µg/mL. The Solubility ([4]; methanol, ethyl acetate, dimethylsulfoxide) was “Soluble” and the Solubility ([4]; water, n-hexane) was “Insoluble”.
